According to ChEMBL document CHEMBL5390201, “The Natural Alkaloid (-)-N-Hydroxyapiosporamide Suppresses Colorectal Tumor Progression as an NF-κB Pathway Inhibitor by Targeting the TAK1-TRAF6 Complex” (J Nat Prod, 2023):
The source made the active and inactive calls. The rule behind the calls is not given here.

Key:
[1] = system: HCT-116; assay: Induction of apoptosis in human HCT-116 cells assessed as late apoptotic cells at 0.5 uM incubated for 24 hrs by Annexin V-FITC/PI staining based flow cytometric analysis (reference value: 2.9 %); format: functional
[2] = system: HT-29; assay: Induction of apoptosis in human HT-29 cells assessed as late apoptotic cells at 5 uM incubated for 24 hrs by Annexin V-FITC/PI staining based flow cytometric analysis (reference value: 6.91 %); format: functional
[3] = system: HCT-116; assay: Induction of cell cycle arrest in human HCT-116 cells assessed as accumulation of cells at S phase at 5 uM by RNase/PI staining based flow cytometry analysis (reference value: 43.77 %); format: functional
[4] = system: HCT-116; assay: Antitumor activity against human HCT-116 cells xenografted in athymic nude BALB/c mouse assessed as induction of apoptosis by measuring increase in cleaved caspase 3 expression in tumor at 15 mg/kg, ip administered every other day and measured after 14 days by immunohistochemistry analysis; format: functional, organism-based; settings: time 14.0 day
[5] = system: HT-29; assay: Induction of cell cycle arrest in human HT-29 cells assessed as decrease in CDK2 protein expression upto 10 uM incubated for 24 hrs by Western blot analysis; format: functional, cell-based
[6] = Half life in Sprague-Dawley rat at 10 mg/kg, ip measured for 24 hrs by HPLC-MS/MS analysis; format: ADME, organism-based; settings: in vivo
[7] = system: HT-29; assay: Induction of autophagy in human HT-29 cells assessed as increase in autophagic vesicles at 1 to 10 uM incubated for 24 hrs MDC staining-based fluorescence microscopy; format: functional, cell-based; settings: dose 1-10 µM
[8] = system: HT-29; assay: Induction of apoptosis in human HT-29 cells assessed as necrotic cells at 10 uM incubated for 24 hrs by Annexin V-FITC/PI staining based flow cytometric analysis (reference value: 0.14 %); format: functional
[9] = system: HCT-116; assay: Induction of apoptosis in human HCT-116 cells assessed as late apoptotic cells at 5 uM preincubated with Z-VAD-FMK for 1 hr followed by compound addition and measured after 24 hrs by Annexin V-FITC/PI staining based flow cytometric analysis (reference value: 9.37 %); format: functional
[10] = system: HCT-116; assay: Induction of apoptosis in human HCT-116 cells assessed as late apoptotic cells at 5 uM incubated for 24 hrs by Annexin V-FITC/PI staining based flow cytometric analysis (reference value: 2.9 %); format: functional
[11] = system: HT-29; assay: Induction of apoptosis in human HT-29 cells assessed as early apoptotic cells at 5 uM incubated for 24 hrs by Annexin V-FITC/PI staining based flow cytometric analysis (reference value: 4.39 %); format: functional
[12] = system: Mus musculus; assay: Anti-inflammatory activity in AOM/DSS-induced BALB/c mouse model inflammatory bowel disease assessed as reduction in transformation into adenocarcinoma at 10 mg/kg, ip pretreated with AOM for 7 days further replaced with DSS for 7 days and repeated for 2 times followed by every 2 days compound treatment for […] starting from day 50 by H and E staining based analysis; format: functional, organism-based; settings: time 21.0 day
[13] = system: Mus musculus; assay: Anti-inflammatory activity in AOM/DSS-induced BALB/c mouse model inflammatory bowel disease assessed as reduction in tumor number at 5 to 10 mg/kg, ip pretreated with AOM for 7 days further replaced with DSS for 7 days and repeated for 2 times followed by every 2 days compound treatment for […] starting from day 50 and measured once a week; format: functional, organism-based; settings: dose 5-10 mg/kg, time 21.0 day
[14] = Cmax in Sprague-Dawley rat at 10 mg/kg, iv measured for 5 mins by HPLC-MS/MS analysis; format: ADME, organism-based; design: time 5 min, dose 10 mg/kg, route iv; settings: in vivo
[15] = system: HCT-116; assay: Induction of apoptosis in human HCT-116 cells assessed as late apoptotic cells at 1 uM incubated for 24 hrs by Annexin V-FITC/PI staining based flow cytometric analysis (reference value: 2.9 %); format: functional
[16] = system: HT-29; assay: Induction of autophagic cell death in human HT-29 cells at 1 to 10 uM pretreated with chloroquine for 1 hr followed by compound addition and measured after 24 hrs by SRB assay; format: functional, cell-based; settings: dose 1-10 µM
[17] = system: HCT-116; assay: Induction of apoptosis in human HCT-116 cells assessed as viable cells at 10 uM incubated for 24 hrs by Annexin V-FITC/PI staining based flow cytometric analysis (reference value: 88.8%); format: functional; settings: read-out: Activity
[18] = Toxicity in athymic nude BALB/c mouse xenografted with human HT-29 cells assessed as pathological changes in lungs at 5 to 15 mg/kg, ip administered every other day and measured after 14 days by hematoxylin and eosin staining-based microscopic analysis; format: organism-based; settings: in vivo, 336 h, dose 5-15 mg/kg, time 14 day
[19] = system: HT-29; assay: Cytotoxicity against human HT-29 cells assessed as inhibition of cell growth incubated for 24 hrs by SRB assay; format: functional, cell-based; settings: HT-29, 24 h
[20] = system: HCT-116; assay: Cytotoxicity against human HCT-116 cells assessed as inhibition of cell growth by SRB assay; format: functional, cell-based; settings: time 24-48 hrs, TDE = time-dependent effect
[21] = system: Mus musculus; assay: In vivo inhibition of NFkappaB activation in athymic BALB/c mouse xenografted with human HT-29 cells assessed as reduction in E-selectin gene expression in tumor at 5 to 15 mg/kg, ip administered every other day and measured after 14 days by qRT-PCR analysis; format: functional, organism-based; settings: dose 5-15 mg/kg, time 14.0 day
[22] = system: HT-29; assay: Cytotoxicity against human HT-29 cells assessed as inhibition of cell growth by SRB assay; format: functional, cell-based; settings: time 24-48 hrs, TDE = time-dependent effect
[23] = target: T1, Nuclear factor NF-kappa-B complex (Homo sapiens) (UniProt Q00653+P19838+Q04206); assay: Inhibition of TNF-alpha induced NFkappaB activation in human HT-29 cells assessed as inhibition of IkappaBalpha degradation at 1 to 10 uM pretreated for 24 hrs followed by TNFalpha stimulation for 10 mins by Western blot analysis; format: cell-based; settings: dose 1-10 µM, time 1450.0 min
T1 sequence (P19838 whole entry, looked up): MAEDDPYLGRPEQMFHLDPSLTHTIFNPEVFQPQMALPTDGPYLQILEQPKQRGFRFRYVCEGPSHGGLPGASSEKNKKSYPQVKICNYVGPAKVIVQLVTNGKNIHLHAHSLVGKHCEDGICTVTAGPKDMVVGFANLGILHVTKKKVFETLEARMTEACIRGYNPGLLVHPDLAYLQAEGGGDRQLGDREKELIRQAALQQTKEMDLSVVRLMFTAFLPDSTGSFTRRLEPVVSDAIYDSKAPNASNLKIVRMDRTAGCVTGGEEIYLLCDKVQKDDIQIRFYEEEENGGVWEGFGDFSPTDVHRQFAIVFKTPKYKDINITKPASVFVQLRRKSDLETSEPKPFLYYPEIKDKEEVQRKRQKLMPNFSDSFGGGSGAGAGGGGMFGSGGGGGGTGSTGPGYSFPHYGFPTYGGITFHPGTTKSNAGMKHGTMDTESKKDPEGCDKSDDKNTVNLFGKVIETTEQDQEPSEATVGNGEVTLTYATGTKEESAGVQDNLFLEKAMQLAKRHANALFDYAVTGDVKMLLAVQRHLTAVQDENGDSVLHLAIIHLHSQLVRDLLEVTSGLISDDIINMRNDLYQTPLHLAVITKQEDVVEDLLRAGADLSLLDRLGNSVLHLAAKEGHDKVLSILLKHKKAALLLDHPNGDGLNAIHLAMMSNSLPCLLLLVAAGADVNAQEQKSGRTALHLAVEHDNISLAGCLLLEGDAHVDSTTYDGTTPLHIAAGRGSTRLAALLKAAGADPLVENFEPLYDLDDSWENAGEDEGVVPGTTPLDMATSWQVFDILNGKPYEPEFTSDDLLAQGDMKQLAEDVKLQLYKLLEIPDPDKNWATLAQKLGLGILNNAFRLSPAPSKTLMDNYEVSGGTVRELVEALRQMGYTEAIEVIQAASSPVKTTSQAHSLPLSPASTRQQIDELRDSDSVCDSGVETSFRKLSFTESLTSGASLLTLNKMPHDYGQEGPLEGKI
T1 sequence (Q00653 whole entry, looked up): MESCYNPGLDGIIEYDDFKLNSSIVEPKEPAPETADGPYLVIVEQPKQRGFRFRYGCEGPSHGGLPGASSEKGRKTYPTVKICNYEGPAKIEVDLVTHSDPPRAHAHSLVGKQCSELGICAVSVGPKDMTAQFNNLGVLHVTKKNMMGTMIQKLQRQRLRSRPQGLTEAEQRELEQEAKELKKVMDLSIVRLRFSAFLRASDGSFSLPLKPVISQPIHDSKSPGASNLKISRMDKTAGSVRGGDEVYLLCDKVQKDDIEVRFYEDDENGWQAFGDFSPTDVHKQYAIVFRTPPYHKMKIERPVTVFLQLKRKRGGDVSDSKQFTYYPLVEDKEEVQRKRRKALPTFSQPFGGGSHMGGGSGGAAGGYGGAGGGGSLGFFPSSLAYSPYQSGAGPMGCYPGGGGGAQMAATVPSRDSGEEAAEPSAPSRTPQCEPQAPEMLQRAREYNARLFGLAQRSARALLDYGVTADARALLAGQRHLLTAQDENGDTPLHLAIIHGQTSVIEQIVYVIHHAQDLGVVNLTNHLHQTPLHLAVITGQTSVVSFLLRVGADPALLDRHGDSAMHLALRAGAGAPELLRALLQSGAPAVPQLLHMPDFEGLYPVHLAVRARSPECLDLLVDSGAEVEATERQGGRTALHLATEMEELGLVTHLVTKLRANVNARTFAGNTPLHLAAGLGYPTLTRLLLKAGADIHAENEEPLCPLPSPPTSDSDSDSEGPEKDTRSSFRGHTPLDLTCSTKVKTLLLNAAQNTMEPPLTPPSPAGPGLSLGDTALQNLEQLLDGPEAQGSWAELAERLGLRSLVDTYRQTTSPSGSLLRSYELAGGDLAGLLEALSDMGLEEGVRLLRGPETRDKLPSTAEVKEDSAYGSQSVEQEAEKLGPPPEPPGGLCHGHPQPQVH
T1 sequence (Q04206 whole entry, looked up): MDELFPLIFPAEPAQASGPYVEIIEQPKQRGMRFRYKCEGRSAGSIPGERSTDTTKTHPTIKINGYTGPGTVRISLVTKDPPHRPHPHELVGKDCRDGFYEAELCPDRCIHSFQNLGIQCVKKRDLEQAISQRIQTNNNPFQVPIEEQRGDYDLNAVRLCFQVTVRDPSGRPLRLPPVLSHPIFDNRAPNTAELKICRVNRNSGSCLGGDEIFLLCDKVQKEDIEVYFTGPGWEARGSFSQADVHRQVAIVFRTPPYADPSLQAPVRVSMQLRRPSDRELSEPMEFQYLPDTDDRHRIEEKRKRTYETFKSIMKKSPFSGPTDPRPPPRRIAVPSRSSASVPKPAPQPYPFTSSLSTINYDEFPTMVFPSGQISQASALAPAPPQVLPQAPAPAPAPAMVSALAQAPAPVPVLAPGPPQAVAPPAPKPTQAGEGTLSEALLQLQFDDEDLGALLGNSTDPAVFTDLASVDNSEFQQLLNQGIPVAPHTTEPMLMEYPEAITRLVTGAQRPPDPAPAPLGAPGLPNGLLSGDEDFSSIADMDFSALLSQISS

[24] = system: HCT-116; assay: Induction of cell cycle arrest in human HCT-116 cells assessed as accumulation of cells at G2/M phase at 10 uM by RNase/PI staining based flow cytometry analysis (reference value: 23.15 %); format: functional
[25] = system: HCT-116; assay: Induction of autophagic flux in human HCT-116 cells assessed as increase in LC3I to LC3II conversion preincubated with chloroquine for 1 hr followed by compound addition and measured after 24 hrs by Western blot analysis; format: functional, cell-based
[26] = target: T1, Nuclear factor NF-kappa-B complex (Homo sapiens); assay: Inhibition of TNF-alpha induced NFkappaB activation in human HCT-116 cells assessed as inhibition of IkappaBalpha degradation at 1 to 10 uM pretreated for 24 hrs followed by TNFalpha stimulation for 10 mins by Western blot analysis; format: cell-based; settings: dose 1-10 µM, time 1450.0 min
[27] = system: HCT-116; assay: Induction of apoptosis in human HCT-116 cells assessed as necrotic cells at 5 uM incubated for 24 hrs by Annexin V-FITC/PI staining based flow cytometric analysis (reference value: 0.69 %); format: functional
[28] = Toxicity in athymic nude BALB/c mouse xenografted with human HT-29 cells assessed as pathological changes in liver at 5 to 15 mg/kg, ip administered every other day and measured after 14 days by hematoxylin and eosin staining-based microscopic analysis; format: organism-based; settings: in vivo, 336 h, dose 5-15 mg/kg, time 14 day
[29] = system: HT-29; assay: Induction of apoptosis in human HT-29 cells assessed as early apoptotic cells at 5 uM preincubated with Z-VAD-FMK for 1 hr followed by compound addition and measured after 24 hrs by Annexin V-FITC/PI staining based flow cytometric analysis (reference value: 4.05 %); format: functional
[30] = system: HCT-116; assay: Induction of autophagy in human HCT-116 cells assessed as increase in autophagic vesicles at 1 to 10 uM incubated for 24 hrs MDC staining-based fluorescence microscopy; format: functional, cell-based; settings: dose 1-10 µM

## C[C@@H]1CC[C@H]2[C@H](C(=O)c3c(O)c([C@@]4(O)CC[C@@H](O)[C@H]5O[C@H]54)cn(O)c3=O)[C@H](C)C=C[C@@H]2C1
[1]
  Activity: 32.8%
[2]
  Activity: 21.9%
[3]
  Activity: 40.03%
[4]
  Activity: Active
[5]
  Activity: Active
[6]
  half-life: 3.73 h
[7]
  Activity: Active
[8]
  Activity: 0.16%
[9]
  Activity: 53.3%
[10]
  Activity: 64.4%
[11]
  Activity: 28.3%
[12]
  Activity: Active
[13]
  Activity: Active
[14]
  Cmax: 13200 ng/mL
[15]
  Activity: 47%
[16]
  Activity: inactive
[17]
  viability at 10 µM: 11.1%
[18]
  Activity: Non-Toxic
[19]
  IC50: 610 nM
[20]
  Activity: Tde
[21]
  inhibition: Active
[22]
  Activity: Tde
[23]
  inhibition: Active
[24]
  Activity: 14.17%
[25]
  Activity: Active
[26]
  inhibition: Active
[27]
  Activity: 0.52%
[28]
  Activity: Non-Toxic
[29]
  Activity: 17.1%
[30]
  Activity: Active
